Data from the Deep4Chem optical property database.

Test: solvent given as SMILES
[1] = in O=P(c1ccccc1)(c1ccccc1)c1ccccc1Oc1ccccc1P(=O)(c1ccccc1)c1ccccc1

c1ccc(-c2nc(-c3ccc(-c4cccs4)s3)[nH]c2-c2ccccc2)cc1
fluorescence lifetime (in CC#N): 0.86 ns

CCN(CC)c1ccc2cc(-c3ccc(-c4ccc5ccc6c(-c7ccc(-c8cc9ccc(N(CC)CC)cc9oc8=O)cc7)ccc7ccc4c5c76)cc3)c(=O)oc2c1
fluorescence lifetime (in ClC(Cl)Cl): 8.46 ns

Cc1ccc2c(c1)C(c1ccccc1)(c1ccccc1)c1cc(C)ccc1N2c1ccc2c(c1)N(c1ccccc1)c1ccccc1B2c1c(C(C)C)cc(C(C)C)cc1C(C)C
fluorescence lifetime (in Cc1ccccc1): 5.6 ns | fluorescence lifetime (in O=P(c1ccccc1)(c1ccccc1)c1ccc2oc3ccc(P(=O)(c4ccccc4)c4ccccc4)cc3c2c1): 8.7 ns

COc1ccc(/C=C/C2=CC(/C=C/c3ccc(OC)cc3)=[O+][B-](F)(F)O2)cc1
fluorescence lifetime (in CC#N): 1.55 ns | fluorescence lifetime (in CC(C)=O): 1.49 ns | fluorescence lifetime (in CCOC(C)=O): 0.88 ns | fluorescence lifetime (in CCOCC): 0.7 ns | fluorescence lifetime (in ClC(Cl)(Cl)Cl): 0.5 ns | fluorescence lifetime (in ClCCl): 1.3 ns

C[n+]1c2c(c(-c3ccccc3)c3c1CCCC3)CCCC2
fluorescence lifetime (in CCO): 5.39 ns

c1cc2ccc3ccc(OP4(Oc5ccc6ccc7cccc8ccc5c6c78)=NP(Oc5ccc6ccc7cccc8ccc5c6c78)(Oc5ccc6ccc7cccc8ccc5c6c78)=NP(Oc5ccc6ccc7cccc8ccc5c6c78)(Oc5ccc6ccc7cccc8ccc5c6c78)=N4)c4ccc(c1)c2c34
fluorescence lifetime (in ClCCl): 2.5 ns

CCCCc1cc(-c2cccc(COC)c2)oc1-c1cccc(-c2cc(CCCC)c(-c3cccc(-c4cc(CCCC)c(-c5cccc(-c6oc(-c7cccc(-c8oc(-c9cccc(-c%10oc(-c%11cccc(COC)c%11)cc%10CCCC)c9)cc8CCCC)c7)cc6CCCC)c5)o4)c3)o2)c1
fluorescence lifetime (in ClC(Cl)Cl): 1.35 ns

O=C(O)CCCCCn1c2ccccc2c(=O)c2ccccc21
fluorescence lifetime (in O): 14.2 ns

O=c1c2ccccc2n2c3ccccc3c(=O)c3cc(-c4ccccc4)cc1c32
fluorescence lifetime (in c1cc(-c2cccc(-n3c4ccccc4c4ccccc43)c2)cc(-n2c3ccccc3c3ccccc32)c1): 5.47 ns | fluorescence lifetime (in c1cc(-n2c3ccccc3c3ccccc32)cc(-n2c3ccccc3c3ccccc32)c1): 5.47 ns

CCCCCCCCC1(CCCCCCCC)c2cc(-c3ccc(C(=O)OC)cc3)ccc2-c2ccc(-c3ccc(C(=O)OC)cc3)cc21
fluorescence lifetime (in CN(C)C=O): 1.48 ns

O=S1(=O)c2ccccc2C2(c3cc(-c4ccc(N(c5ccccc5)c5ccccc5)cc4)ccc3-c3ccc(-c4ccc(N(c5ccccc5)c5ccccc5)cc4)cc32)c2ccccc21
fluorescence lifetime (in ClCCl): 1.5 ns

F[B-]1(F)Oc2ccccc2-c2cc(-n3c4ccccc4c4ccccc43)cc[n+]21
fluorescence lifetime [1]: 6.7 ns

COc1ccc(-c2nc(-c3ccc(-c4nc(-c5ccc(OC)cc5)c(-c5ccc(OC)cc5)[nH]4)s3)[nH]c2-c2ccc(OC)cc2)cc1
fluorescence lifetime (in CC#N): 1.42 ns

CCCCCCn1c2ccccc2c2cc(-c3ccc(-c4cc(-c5ccccn5)nc(-c5ccccn5)c4)cc3)ccc21
fluorescence lifetime (in ClCCl): 1.51 ns

C(#Cc1cccs1)C(C#Cc1cccs1)=Cc1ccc(C=C(C#Cc2cccs2)C#Cc2cccs2)cc1
fluorescence lifetime (in ClC(Cl)Cl): 1.6 ns

COC(=O)C(NC(=O)OC(C)(C)C)c1ccc2oc(-c3ccc(F)cc3)nc2c1 (centres undefined)
fluorescence lifetime (in CC1CCCCC1): 1.23 ns | fluorescence lifetime (in CC#N): 1.47 ns | fluorescence lifetime (in CO): 1.53 ns

Nc1cccc2c1ccc1[n+]2[B-](F)(F)n2c-1cc1c3ccccc3c3ccccc3c12
fluorescence lifetime (in ClCCl): 2.19 ns

C(#Cc1nccnc1C#Cc1ccccc1)c1ccccc1
fluorescence lifetime (in CC#N): 0.336 ns

CC1(C)c2ccccc2-c2ccc(N3c4ccc(-c5ccc(/C=C6\C(=O)c7ccc(C(=O)O)cc7C6=O)s5)cc4C4CCCC43)cc21 (centres undefined)
fluorescence lifetime (in ClC(Cl)Cl): 1.04 ns

C[Si](C)(C)c1ccc(-c2ccc(-c3ccc(-c4ccc(-c5ccc([Si](C)(C)C)cc5)s4)c4nsnc34)s2)cc1
fluorescence lifetime (in C1CCOC1): 6.9 ns

COc1ccc2ccc(O)cc2c1
fluorescence lifetime (in O): 8.33 ns

COc1ccc(/C=C/c2nc(N3CCOCC3)c3c([n+]2[O-])CCCC3)cc1
fluorescence lifetime (in ClCCl): 8.3 ns

Cn1c(-c2ccc(-c3nc(-c4ccccc4)c(-c4ccccc4)n3C)s2)nc(-c2ccccc2)c1-c1ccccc1
fluorescence lifetime (in CC#N): 1.24 ns

CN(C)c1ccc(-c2nc3cccnc3[nH]2)cc1
fluorescence lifetime (in C1CCCCC1): 1.08 ns | fluorescence lifetime (in CC#N): 1.58 ns

COC(=O)c1nc(Br)c(-c2ccccc2)o1
fluorescence lifetime (in C1CCCCC1): 0.49 ns

c1cc2ccc3cccc4c(-c5cc(-c6nccs6)nc(-c6nccs6)c5)cc(c1)c2c34
fluorescence lifetime (in CC#N): 2.9 ns | fluorescence lifetime (in CCCCCC): 3.24 ns | fluorescence lifetime (in CO): 3.2 ns | fluorescence lifetime (in ClC(Cl)Cl): 2.41 ns

COc1ccccc1-c1c(-c2ccccc2O)nc(-c2ccc(C(F)(F)F)cc2)n1-c1ccc(C)cc1
fluorescence lifetime (in C1CCOC1): 2.82 ns | fluorescence lifetime (in CC(C)O): 1.8 ns | fluorescence lifetime (in CO): 1.5 ns | fluorescence lifetime (in CS(C)=O): 2.2 ns | fluorescence lifetime (in ClC(Cl)Cl): 0.96 ns | fluorescence lifetime (in ClCCl): 3.82 ns

COc1ccc(C2=Cc3cc4ccccc4cc3P2(=O)c2ccccc2)cc1 (centres undefined)
fluorescence lifetime (in ClCCl): 3.8 ns

CC1(C)C(/C=C/C2=C(Oc3ccc(CCN=C=S)cc3)C(=C/C=C3/N(CCCS(=O)(=O)[O-])c4ccccc4C3(C)C)/CCC2)=[N+](CCCS(=O)(=O)[O-])c2ccccc21
fluorescence lifetime (in CO): 0.873 ns

CC1(C)c2ccccc2N(c2ccccc2)c2ccc(C(=O)c3ccc4c(c3)C(C)(C)c3ccccc3N4c3ccccc3)cc21
fluorescence lifetime [1]: 0.81 ns

C(#Cc1cc2ccc3cccc4ccc(c1)c2c34)c1ccccc1
fluorescence lifetime (in Cc1ccccc1): 71 ns

Cn1c(=O)cc(C(=O)c2ccccc2)c2sc(-c3ccc(OC(F)(F)F)cc3)cc21
fluorescence lifetime (in ClCCl): 4.77 ns

CN(C)c1ccc(C2=Cc3cccc[n+]3[B-](F)(F)O2)cc1
fluorescence lifetime (in ClC(Cl)Cl): 2.68 ns

CN(C)c1ccc2nc(/C=C/c3cc4c5c(c3)CCCN5CCC4)c(=O)oc2c1
fluorescence lifetime (in C1COCCO1): 2.9 ns | fluorescence lifetime (in CC#N): 0.22 ns | fluorescence lifetime (in CC(C)=O): 0.8 ns | fluorescence lifetime (in CCCCCCC): 2.02 ns | fluorescence lifetime (in CCOC(C)=O): 2.4 ns | fluorescence lifetime (in CN(C)C=O): 0.18 ns | fluorescence lifetime (in CS(C)=O): 0.32 ns | fluorescence lifetime (in Cc1ccccc1): 2.6 ns | fluorescence lifetime (in ClC(Cl)Cl): 1.35 ns | fluorescence lifetime (in ClCCl): 1.35 ns

CN(C)c1ccc(/C=C/C=C2\CC/C(=C\c3ccc(N(C)C)cc3)C2=O)cc1
fluorescence lifetime (in C1CCOC1): 0.42 ns | fluorescence lifetime (in CC#N): 0.91 ns | fluorescence lifetime (in CC(C)=O): 1.15 ns | fluorescence lifetime (in CC(C)O): 1.24 ns | fluorescence lifetime (in CCCCO): 1.25 ns | fluorescence lifetime (in CCCCOC(C)=O): 0.63 ns | fluorescence lifetime (in CCCO): 1.13 ns | fluorescence lifetime (in CCO): 0.82 ns | fluorescence lifetime (in CCOC(=O)c1ccccc1): 0.83 ns | fluorescence lifetime (in CCOC(C)=O): 0.71 ns | fluorescence lifetime (in CCOCC): 0.31 ns | fluorescence lifetime (in CN(C)C=O): 1.32 ns | fluorescence lifetime (in CO): 0.3 ns | fluorescence lifetime (in CS(C)=O): 1.4 ns | fluorescence lifetime (in Cc1ccccc1): 0.36 ns | fluorescence lifetime (in ClC(Cl)(Cl)Cl): 0.29 ns | fluorescence lifetime (in ClC(Cl)Cl): 0.98 ns | fluorescence lifetime (in ClCCl): 1.13 ns | fluorescence lifetime (in Clc1ccccc1Cl): 0.83 ns | fluorescence lifetime (in S=C=S): 0.43 ns | fluorescence lifetime (in c1ccccc1): 0.38 ns | fluorescence lifetime (in c1ccncc1): 1.26 ns

CC(=O)OC[C@@H]1O[C@H](N2C=CC3=Nc4nc(C)[n+](C)cc4CN3C2=O)[C@@H](O)[C@H]1O
fluorescence lifetime (in CC#N): 3.92 ns | fluorescence lifetime (in O): 1.04 ns

CCc1ccc(-n2c3ccccc3c3cc4c(cc32)c2ccccc2n4-c2ccc(CC)cc2)cc1
fluorescence lifetime (in ClC(Cl)Cl): 3.62 ns

Cc1ccccc1C1=C2C=c3c(oc4ccccc34)=[N+]2[B-](F)(F)n2c1cc1c3ccccc3oc12
fluorescence lifetime (in C1CCCCC1): 4.21 ns | fluorescence lifetime (in CCOC(C)=O): 4.41 ns | fluorescence lifetime (in CO): 4.44 ns

O=S1(=O)c2ccccc2-c2cc(-c3c4ccccc4cc4ccccc34)ccc21
fluorescence lifetime (in C1CCCCC1): 3.3 ns | fluorescence lifetime (in CC#N): 3.8 ns | fluorescence lifetime (in ClCCl): 3.4 ns

CCC[Si](CCC)(CCC)c1cc2ccc3cccc4ccc(c1C(=O)NC(C)(C)C)c2c34
fluorescence lifetime (in ClC(Cl)Cl): 6.91 ns

c1ccc2c(c1)c1ccc3cccc4c3c1c2c1c2cccc3ccc5c6ccccc6c(c5c32)c41
fluorescence lifetime (in ClCCl): 0.75 ns

CC1=C(c2cccs2)C(C)=[N+]2C1=C(c1ccc(O)cc1)c1c(C)c(-c3cccs3)c(C)n1[B-]2(F)F
fluorescence lifetime (in Cc1ccccc1): 3.8 ns

Cc1ccc(C(=O)NN2C3=C(CC4=C2CCCC4=O)C(=O)CCC3)cc1
fluorescence lifetime (in C1CCOC1): 4.1 ns | fluorescence lifetime (in CC#N): 5.9 ns | fluorescence lifetime (in CC(C)=O): 5.1 ns | fluorescence lifetime (in CCCCCO): 5.9 ns | fluorescence lifetime (in CO): 4.6 ns | fluorescence lifetime (in ClC(Cl)Cl): 7.9 ns | fluorescence lifetime (in ClCCl): 5.3 ns

Cc1c2oc3c(C)c(N)cc(C(=O)NC4OC(=O)C(C(C)C)N(C)C(=O)CN(C)C(=O)C5CCCN5C(=O)C(C(C)C)NC4=O)c3nc-2c(C(=O)NC2OC(=O)C(C(C)C)N(C)C(=O)CN(C)C(=O)C3CCCN3C(=O)C(C(C)C)NC2=O)c(N)c1=O (centres undefined)
fluorescence lifetime (in C1CCCCC1): 1.07 ns | fluorescence lifetime (in CC#N): 1.54 ns | fluorescence lifetime (in CC(=O)O): 0.49 ns | fluorescence lifetime (in CC(C)=O): 0.93 ns | fluorescence lifetime (in CCCCO): 1.5 ns | fluorescence lifetime (in CCCCOC(C)=O): 1.1 ns | fluorescence lifetime (in CCCO): 1.34 ns | fluorescence lifetime (in CCN(CC)CC): 0.62 ns | fluorescence lifetime (in CCO): 1.22 ns | fluorescence lifetime (in CCOC(C)=O): 1.19 ns | fluorescence lifetime (in CO): 0.5 ns | fluorescence lifetime (in CS(C)=O): 1.8 ns | fluorescence lifetime (in Cc1ccccc1): 1.23 ns | fluorescence lifetime (in ClC(Cl)Cl): 1.02 ns | fluorescence lifetime (in ClCCCl): 1.16 ns | fluorescence lifetime (in O): 0.75 ns | fluorescence lifetime (in O=[N+]([O-])c1ccccc1): 0.37 ns | fluorescence lifetime (in [2H]O[2H]): 1.08 ns | fluorescence lifetime (in c1ccccc1): 1.22 ns | fluorescence lifetime (in c1ccncc1): 1.53 ns

CN(C)c1ccc(C2=Cc3c4ccccc4c4ccccc4[n+]3[B-](F)(F)O2)cc1
fluorescence lifetime (in ClC(Cl)Cl): 2.6 ns

Cc1ccc(-c2cnc3nn4ccccc4c3c2)cc1
fluorescence lifetime (in C1CCOC1): 4.6 ns

C(#Cc1ccccc1)C(C#Cc1ccccc1)=Cc1ccc2cc(C=C(C#Cc3ccccc3)C#Cc3ccccc3)ccc2c1
fluorescence lifetime (in ClC(Cl)Cl): 1.1 ns

COc1ccc(-c2nc3c(c4c2-c2ccc(C#N)cc2CC4)-c2ccc(C#N)cc2CC3)cc1
fluorescence lifetime (in CS(C)=O): 0.27 ns

O=P1(c2ccccc2)C2=C(c3ccccc31)S(=O)(=O)c1ccccc12 (centres undefined)
fluorescence lifetime (in ClCCl): 12.9 ns

Cc1cc(C)c(B(c2c(C)cc(C)cc2C)c2cc3cccc4c(B(c5c(C)cc(C)cc5C)c5c(C)cc(C)cc5C)cc5cccc2c5c34)c(C)c1
fluorescence lifetime (in CCCCCC): 5 ns

CC1(CCCCC(=O)NCCCCCCO)C(/C=C/C=C/C=C2/N(CCCS(=O)(=O)[O-])c3ccc(S(=O)(=O)[O-])cc3C2(C)C)=[N+](CCCS(=O)(=O)[O-])c2ccc(S(=O)(=O)[O-])cc21 (centres undefined)
fluorescence lifetime (in O): 1 ns
